# In patent publication US20130317096A1, “SYNERGISTIC INTERACTION OF AT LEAST ONE VITAMIN E COMPONENT AND TYROSINASE INHIBITORS FOR DERMATOLOGICAL APPLICATIONS” (Davos Life Science Pte Ltd, priority 2010, published 2013):
# Legend:
# B16 melanoma cells [1] = assay: Anti-pigmentation effect, photographs of cell pellets; type: cell-based, mouse; conditions: 20 μM
# Description: (§1) At different time points, cells were harvested using trysin-EDTA and the cell pellets were washed once with phosphate-buffered saline (PBS). A sample amount from each compound treatment group was divided into two equal parts. These cell pellets were then stored at −80° C. prior to the measurement of the tyrosinase activity and melanin content.
# B16 melanoma cells [2] = assay: Melanin content of treated B16 melanoma cells; type: cell-based, mouse; conditions: for melanin content lower than controls / melanin content: 20 μM; for melanin content: days 5 and 9
# Description: as §1
# Harvested cell pellets were dissolved in 1 ml of 1N sodium hydroxide before incubation at 80° C. The melanin content was then immediately measured at 420 nm. The absorbance percentage values of the treated groups in comparison to untreated controls were calculated against per μg of the determined total protein content.
# tyrosinase [3] = assay: Western blot of tyrosinase protein expression in B16 melanoma cells; type: cell-based, mouse; conditions: for tyrosinase protein expression: 20 μM treatment; for tyrosinase protein suppression, dose response and relative potency: increasing dosage; for time response of tyrosinase suppression: single dose, 24 hrs versus 48 hrs
# Description: Carcinogenesis, 2006, 27, 2180-9. Briefly, cell lysates were prepared by suspending cell pellets in lysis buffer (50 mmol/l Tris-HCl [pH 8.0], 150 mmol/l NaCl, 1% NP40, 0.5% deoxycholate, 0.1% SDS, […], 1 μg/ml leupeptin, and 1 mmol/l phenylmethylsulfonyl fluoride). The protein concentration was measured using the DC Protein Assay kit (Bio-Rad, Hercules, Calif., USA). An equal amount of protein (30 μg) was loaded onto a 10% SDS polyacrylamide gel for electrophoresis, then transferred onto a polyvinylidene difluoride membrane (Amersham, Piscataway, N.J., USA). The membrane was then incubated with primary antibodies for 1 hr at room temperature against tyrosinase, Id1, and beta-actin (Santa Cruz Biotechnology, Inc., Santa Cruz, Calif., USA). After incubation with appropriate secondary antibodies, signals were visualized by an ECL Western blotting system (Amersham). The expression of β-actin was assessed as an internal loading control for total cell lysate.
# tyrosinase [4] = molecular target: T1, tyrosinase (Mus musculus, UniProt P11344); assay: Tyrosinase activity of treated B16 melanoma cells (L-DOPA, dopachrome formation); type: cell-based; conditions: 20 μM; for tyrosinase activity: day 9
# T1 construct: suppression of tyrosinase protein expression in B16 melanoma cells; endogenous in cells; host or cells: B16 melanoma cells
# T1 sequence (P11344 19-533): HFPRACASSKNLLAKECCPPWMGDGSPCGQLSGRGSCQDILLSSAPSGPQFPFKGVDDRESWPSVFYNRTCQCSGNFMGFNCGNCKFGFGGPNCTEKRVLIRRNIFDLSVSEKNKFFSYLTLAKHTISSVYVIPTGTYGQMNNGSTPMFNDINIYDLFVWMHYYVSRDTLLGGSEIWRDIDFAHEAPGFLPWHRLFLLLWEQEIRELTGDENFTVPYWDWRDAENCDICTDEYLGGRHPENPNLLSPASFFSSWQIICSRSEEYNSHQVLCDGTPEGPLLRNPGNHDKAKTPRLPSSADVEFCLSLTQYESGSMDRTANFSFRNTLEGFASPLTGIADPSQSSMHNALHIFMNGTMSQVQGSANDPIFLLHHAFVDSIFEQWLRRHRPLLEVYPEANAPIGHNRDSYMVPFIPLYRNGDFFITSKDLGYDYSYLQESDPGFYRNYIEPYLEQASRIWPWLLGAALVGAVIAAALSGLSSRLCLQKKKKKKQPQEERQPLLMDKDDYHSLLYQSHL
# Description: as §1
# Harvested cell pellets were homogenized in RIPA buffer (10 mM Tris-HCl [pH 7.5], 1% NP-40, 0.1% sodium deoxycholate, 0.1% SDS, 150 mM sodium chloride, and 1 mM EDTA) with protease inhibitors and placed on ice for 30 min. The supernatants were collected after centrifuging the samples at 15,000 g at 4° C. for 30 min. For every 100 μl of supernatant, 200 μl of 0.3% L-DOPA (Sigma-Aldrich) was added. All samples, including a blank control of RIPA buffer and 0.3% L-DOPA, were incubated at 37° C. for 20 min. The dopachrome formation from each sample was then measured at 475 nm. The absorbance percentage values of the treated groups in comparison to untreated controls were calculated against per μg of the total protein content, which was determined using the DC protein assay (Bio-Rad, Hercules, Calif., USA).
# B16 cells = assay: Melanin content of pre-treated B16 cells after UV exposure; type: cell-based, mouse; conditions: 10 minutes UV exposure (short and long wave UV)
# Description: (§2) The UVB source for cell irradiation was provided using a UVP UVM-57 handheld UV lamp (UVP Inc, Upland, Calif., USA).
# [5] = test system: B16 cells xenografted on the flank of nude mice; assay: B16 xenograft model in nude mice; type: in vivo; conditions: cells pre-treated with 20 μM for 1 week, 14 days oral supplementation
# Description: The experimental protocol was approved by the IACUC Committee of the A-STAR Biological Resource Centre (BRC) at Biopolis (IACUC no. 080302). Male BALB/c athymic nude mice (4-5 weeks old, 18-22 g) were purchased from The Jackson Laboratory (Bar Harbor, Me., USA). Mice were housed in Department 1 of the Biological Resource Centre (Biopolis, Singapore) under the standard condition (20.8±2° C., 55±1% relative humidity, 12 hrs light/dark cycle) with rodent diet (Harlan Laboratories, Inc., Indianapolis, Ind., USA) and chlorinated reverse osmosis water supplied in a pathogen-free environment. Briefly, B16 cells were pre-treated with 20 μM of γ- and δ-T3, or palm TRF for 1 week. Then, 5×10^5 pre-treated B16 cells in 100 μl serum-free DMEM were injected subcutaneously into the flank of nude mice using a 1-ml syringe with a 26-gauge needle (Becton Dickinson, Franklin Lakes, N.J., USA). This was followed by a 2-week oral supplementation of γ- and δ-T3, or palm TRF at the dose of 100 mg/kg/day. Altogether, there are four experimental groups: G1, vehicle control; G2, γT3 (100 mg/kg/d); G3, δT3 (100 mg/kg/d); and G4, full spectrum palm TRF (100 mg/kg/d). The mice were weighed daily and the tumors were measured using a Digital Carbon Fiber Caliper (Fisher Scientific, Pittsburgh, Pa., USA) at the 5th and 14th day after innoculation. After 14 days of treatment, the mice were euthanized by CO2 inhalation. Blood samples were collected through cardiac bleeding using a 26-gauge needle. Blood samples were incubated at room temperature for 30 min, followed by centrifugation at 4400 rpm for 30 min at 4° C. Serum, as the supernatant, was separated from plasma and stored at −80° C. Tumors, liver, kidney, spleen, lung, heart, and skin were harvested.
# tyrosinase [6] = assay: UV-induced tyrosinase protein expression, Western blot; type: cell-based, mouse
# Description: as §2
# Briefly, cell lysates were prepared by suspending cell pellets in lysis buffer (50 mmol/l Tris-HCl [pH 8.0], 150 mmol/l NaCl, 1% NP40, 0.5% deoxycholate, 0.1% SDS, 1 mg/ml aprotinin, 1 μg/ml leupeptin, and 1 mmol/l phenylmethylsulfonyl fluoride). The protein concentration was measured using the DC Protein Assay kit (Bio-Rad, Hercules, Calif., USA). An equal amount of protein (30 μg) was loaded onto a 10% SDS polyacrylamide gel for electrophoresis, then transferred onto a polyvinylidene difluoride membrane (Amersham, Piscataway, N.J., USA). The membrane was then incubated with primary antibodies for 1 hr at room temperature against tyrosinase, Id1, and beta-actin (Santa Cruz Biotechnology, Inc., Santa Cruz, Calif., USA). After incubation with appropriate secondary antibodies, signals were visualized by an ECL Western blotting system (Amersham). The expression of β-actin was assessed as an internal loading control for total cell lysate.
compound,measurement,setting,value
"CC(C)=CCC/C(C)=C/CC/C(C)=C/CCC1(C)CCc2cc(O)c(C)c(C)c2O1 (stereo not drawn) [γ-tocotrienol, 7,8-dimethyltocotrienol]",cell pellet pigmentation,B16 melanoma cells [1]; listed as gamma T3,lighter cell pigmentation
same,cell pellet pigmentation,B16 melanoma cells [1]; listed as γT3,lighter cell pigmentation
same,melanin content lower than controls,B16 melanoma cells [2]; day 5,45%
same,melanin content lower than controls,B16 melanoma cells [2]; day 9,30%
same,melanin content,B16 melanoma cells [2]; listed as gamma T3,significantly suppressed the melanin content up to day 9
same,melanin content,B16 melanoma cells [2]; listed as γT3,marginally lower than the treatment samples using 0.05% sodium lactate and kojic acid
same,constitutive melanin synthesis,B16 melanoma cells [2]; B16 melanoma cells,suppress constitutive melanin synthesis
same,tyrosinase protein expression,tyrosinase [3]; listed as γ-T3,remarkable suppression of tyrosinase protein expression
same,tyrosinase protein expression,tyrosinase [3]; listed as γT3,suppresses tyrosinase protein expression
same,"tyrosinase protein suppression, dose response and relative potency",tyrosinase [3]; listed as γ-T3,significant suppression of tyrosinase in a dose-dependent manner
same,"tyrosinase protein suppression, dose response and relative potency",tyrosinase [3]; listed as γT3,stronger
same,time response of tyrosinase suppression,tyrosinase [3]; listed as γ-T3,enhanced by increasing the treatment period from 24 to 48 hrs
same,time response of tyrosinase suppression,tyrosinase [3]; listed as γT3,enhanced after a 48 hr incubation period
same,tyrosinase activity,tyrosinase [4]; listed as gamma T3,significantly suppressed the activity of tyrosinase on day 9
same,tyrosinase activity,tyrosinase [4]; listed as γT3,comparable to that treated with 0.05% kojic acid
same,tyrosinase activity compared to controls,tyrosinase [4]; day 15,< 15%
same,melanin content after UV exposure,B16 cells,significantly suppressed the melanin content
same,pigmentation of solid tumors,[5],lighter in colour compared to controls
same,tumor size,[5],significantly smaller
same,tyrosinase protein expression of B16 cells exposed to UV,"tyrosinase [6]; UV 1, 10, 30 and 60 minutes",significantly suppressed the tyrosinase protein expression
same,long-term inhibitory effect on UVB-induced tyrosinase activation,tyrosinase [6]; long-term UVB,comparable
